Data published in article PMC6906472, “Purification and biological activity of natural variants synthesized by tridecaptin M gene cluster and in vitro drug-kinetics of this antibiotic class” (Scientific Reports, 2019).
≈ marks a conversion by molar mass, not a printed value. Like-named read-outs stand apart in the source and are kept apart here. Square brackets hold non-standard residues; d marks the D form. Peptide text beside a SMILES is read from it. * marks the point of attachment. X2 = CC[C@H](C)CCCC[C@@H](O)CC(=O)*; d(aIle) = CC[C@H](C)[C@@H](N)C(=O)O; X1 = CC[C@H](C)CCCCC(=O)*; dDab = NCC[C@@H](N)C(=O)O; βNA = c1ccc2cc(N*)ccc2c1; Dab = NCC[C@H](N)C(=O)O

Key:
[1] = system: A. baumannii ATCC 19606; settings: broth microdilution, CLSI guidelines
Experimental: (§1) MICs for all the compounds were determined by broth microdilution assay, according to CLSI guidelines[16] as described previously. Haemolysis experiments were performed with fresh rabbit RBCs[11]. All the compounds were tested at a concentration of 128 µg/ml. To obtain rabbit blood, the experiments and the protocols were in accordance with the ethical standards of the Institutional Animal Ethics Committee (IAEC) of the Institute of Microbial Technology approved (Approval no. IAEC/17/11) by Committee for the Purpose of Control And Supervision of Experiments on Animals (CPCSEA, Government of India).

[2] = system: E. coli CF-23 (mcr-1)
Experimental: as §1

[3] = system: K. pneumoniae AH-16 (Col-R)
Experimental: as §1

[4] = system: K. pneumoniae AH-3 (Col-R)
Experimental: as §1

[5] = system: K. pneumoniae ATCC 700603
Experimental: as §1

[6] = system: K. pneumoniae P3R (M1-R); settings: broth microdilution, CLSI guidelines; M1-resistant mutant of ATCC 700603
Experimental: as §1

[7] = system: P. aeruginosa ATCC 27853
Experimental: as §1

[8] = system: Proteus mirabilis MTCC 1429
Experimental: as §1

[9] = system: Serratia marcescens MTCC 97
Experimental: as §1

[10] = system: A. baumannii ATCC 19606; assay: microbe, parasite or virus in culture; settings: for Intrinsic Activity; MIC: ~4 × 10^5 CFU/ml, CA-MHB, 16 to 18 h, 37 °C
Experimental: (§2) Acinetobacter baumannii ATCC 19606, Pseudomonas aeruginosa ATCC 27853, K. pneumoniae ATCC 700603, K. pneumoniae P3R, K. pneumoniae GMCH 13 and K. pneumoniae GMCH 15 were grown in CA-MHB and adjusted to ~4 × 10^5 CFU/ml. 100 µl of fresh CA-MHB containing carbonyl cyanide m-chlorophenyl hydrazine (CCCP) or phenylalanine-arginine beta-naphthylamide (PAβN) (at a final concentration of their 1/4th of MIC or 1/8th of MIC) was added to the wells of a 96-well flat bottom plate. Tridecaptin M was diluted in a 2-fold manner. 100 µl of culture was added and the plates were incubated for 16 to 18 h at 37 °C and observed for MICs. The fold modulation in MICs of tridecaptin M was calculated by comparing the results in the presence or absence of CCCP and PAβN.

[11] = system: K. pneumoniae GMCH 13; assay: microbe, parasite or virus in culture; settings: for Intrinsic Activity; MIC: ~4 × 10^5 CFU/ml, CA-MHB, 16 to 18 h, 37 °C
Experimental: as §2

[12] = system: K. pneumoniae GMCH 15; assay: microbe, parasite or virus in culture; settings: for Intrinsic Activity; MIC: ~4 × 10^5 CFU/ml, CA-MHB, 16 to 18 h, 37 °C
Experimental: as §2

[13] = system: outer membrane of A. baumannii ATCC 19606, P. aeruginosa ATCC 27853, K. pneumoniae ATCC 700603, P3R; assay: Outer membrane permeabilization (NPN assay); format: cell-based; settings: peptide 4 µg/ml and 8 µg/ml; triplicate, three biological repeats
Experimental: For outer membrane permeabilization study, NPN dye was used as described previously. A. baumannii ATCC 19606, P. aeruginosa ATCC 27853, K. pneumoniae ATCC 700603 were treated with two different concentrations of the peptide (4 µg/ml and 8 µg/ml). To check alteration in the cytoplasmic membrane potential, DiSC3(5) probe was used[11].

[14] = Order of elution in RP-HPLC (hydrophobicity); format: physicochemical; settings: C18, acetonitrile/water with 0.075% TFA, in words
Experimental: The strain M-152 was inoculated in 700 ml MHB in 2 L Erlenmeyer flask, and the crude fermentation extract preparation, ion-exchange chromatography and the first step of RP-HPLC were performed as described for tridecaptin M[11]. The peaks obtained in HPLC were assayed against K. pneumoniae using agar well diffusion method. The active peaks (Fig. 1) were purified by the second round of HPLC under different conditions, optimized for each compound. The mobile phase system for all the peaks consisted of solvent A as 20% acetonitrile in Milli-Q and solvent B as 100% acetonitrile. Both solvents contained 0.075% TFA. C18 column (Waters, XBridge, 10 mm × 250 mm, 5 µm, 130 Å) was used to purify the compounds. Following gradient was used for the resolution of different components; for P1, 8% B to 26% B in 30 min, for P3, 8% B to 25% B in 23 min, for P4, 8% B to 23% B in 22 min, for P5, 3% B to 21.5% B in 24 min, for P6, 10% B to 25% B in 25 min, for P7, 8% B to 28% B in 25 min, for P8, 8% B to 26% B in 23 min, for P10, 10% B to 28% B in 30 min, for P11, 10% B to 28% B in 31 min. In two to three min, the gradient was reversed to initial column conditions and was equilibrated for five to six min, before the next injection. Multiple injections were given to generate a sufficient quantity of each compound for further studies.

[15] = system: K. pneumoniae P3R (Tri-M Resistant); assay: microbe, parasite or virus in culture
Experimental: as §2

[16] = system: P. aeruginosa ATCC 27853; assay: microbe, parasite or virus in culture
Experimental: as §2

[17] = system: K. pneumoniae ATCC 700603; assay: Synergy assay with efflux pump inhibitors; format: cell-based
Experimental: as §2

[18] = system: efflux in A. baumannii ATCC 19606; settings: CCCP 4 mg/L, Nile Red 5 μM, energization with 50 mM glucose, fluorescence 552/636 nm
Experimental: To assess the effect of CCCP on efflux in A. baumannii ATCC 19606, the Nile Red efflux assay was used[17]. The overnight grown culture was centrifuged at 3000 g for 10 min at room temperature. The pellet was resuspended in 20 mM potassium phosphate buffer (pH 7.0) containing 1 mM MgCl2 and washed twice with the same buffer. The cells were adjusted to an OD660 of 1.0 and the aliquots were transferred to a glass tubes containing CCCP at a final concentration of 4 mg/L. After 15 min, Nile Red was added to a final concentration of 5 μM, and the cell suspension was incubated in a shaker (140 rpm, 37 °C) for 3 h. The cells were kept at room temperature for 60 min and centrifuged for 5 min at 3000 g. The supernatant was discarded and the cell pellet was resuspended in assay buffer. Next, Nile Red efflux was immediately triggered by rapid energization with 50 mM glucose and the fluorescence was recorded at excitation and emission wavelength 552 nm and 636 nm, respectively, over a period of 5 min.

[19] = ~4 × 10^5 CFU/ml, CA-MHB, 16 to 18 h, 37 °C

## CC[C@H](C)CCCCC(=O)NCC(=O)N[C@H](CCN)C(=O)NCC(=O)N[C@H](CO)C(=O)N[C@H](Cc1ccccc1)C(=O)N[C@@H](CO)C(=O)N[C@@H](CCN)C(=O)N[C@H](CCN)C(=O)N[C@H](C(=O)N[C@@H](CCC(=O)O)C(=O)N[C@H](C(=O)N[C@@H](C(=O)N[C@@H](CO)C(=O)O)[C@@H](C)CC)[C@@H](C)CC)[C@@H](C)CC [M8] (X1-G[dDab]G[dS][dF]S[Dab][dDab]IEI[d(aIle)]S-OH)
[1]
  Peptide MIC: 128 µg/mL
[2]
  Peptide MIC: 4 µg/mL
[3]
  Peptide MIC: 4 µg/mL
[4]
  Peptide MIC: 8 µg/mL
[5]
  Peptide MIC: 4 µg/mL
[6]
  Peptide MIC: 128 µg/mL
[7]; broth microdilution, CLSI guidelines
  Peptide MIC: >128 µg/mL
[8]
  Peptide MIC: >16 µg/mL
[9]
  Peptide MIC: 16 µg/mL

## CC[C@H](C)CCCC[C@@H](O)CC(=O)N[C@@H](C(=O)N[C@H](CCN)C(=O)NCC(=O)N[C@H](CO)C(=O)N[C@H](Cc1ccccc1)C(=O)N[C@@H](CO)C(=O)N[C@@H](CCN)C(=O)N[C@H](CCN)C(=O)N[C@@H](Cc1ccccc1)C(=O)N[C@@H](CCC(=O)O)C(=O)N[C@H](C(=O)N[C@@H](C(=O)N[C@@H](CO)C(=O)O)[C@@H](C)CC)[C@@H](C)CC)C(C)C [M11] (X2-[dV][dDab]G[dS][dF]S[Dab][dDab]FEI[d(aIle)]S-OH; N-terminus and C-terminus assumed)
[2]
  Peptide MIC: 1 µg/mL
[3]
  Peptide MIC: 1 µg/mL
[4]
  Peptide MIC: 1 µg/mL
[5]
  Peptide MIC: 2 µg/mL
[7]; ATCC 27853
  Peptide MIC: 8 µg/mL
[8]
  Peptide MIC: 4 µg/mL
[9]
  Peptide MIC: 4 µg/mL
[10]; MIC with versus without CCCP
  fold modulation (reduction) of MIC in the presence of CCCP: four
[10]
  Intrinsic Activity; MIC: 4 µg/mL
[11]; GMCH 13
  MIC of peptide in the presence of CCCP: 2 µg/mL
[11]
  Intrinsic Activity; MIC: 4 µg/mL
[12]; CCCP at 1/4th MIC
  MIC of peptide in the presence of CCCP: 2 µg/mL
[12]; CCCP at 1/8th MIC
  MIC of peptide in the presence of CCCP: 2 µg/mL
[12]
  Intrinsic Activity; MIC: 2 µg/mL
[13]
  NPN uptake: greater uptake of NPN, compared to M1
[14]
  hydrophobicity by order of elution in HPLC: greater hydrophobicity

## NC(N)=NCCC[C@H](NC(=O)[C@@H](N)Cc1ccccc1)C(=O)Nc1ccc2ccccc2c1 [PAβN, phenylalanine-arginine beta-naphthylamide, reference compound] (H-Phe-Arg-βNA)
[10]; Acinetobacter baumannii, ATCC19606, read-out: Intrinsic Activity, MIC
  MIC: 64 µg/mL (≈ 143 µM)
[11]; Klebsiella pneumoniae, GMCH13, read-out: Intrinsic Activity, MIC
  MIC: 256 µg/mL (≈ 573 µM)
[12]; Klebsiella pneumoniae, GMCH15, read-out: Intrinsic Activity, MIC
  MIC: 256 µg/mL (≈ 573 µM)
[15]; Klebsiella pneumoniae, read-out: Intrinsic Activity, MIC
  MIC: 256 µg/mL (≈ 573 µM)
[16]; Pseudomonas aeruginosa, ATCC27853, read-out: Intrinsic Activity, MIC
  MIC: 64 µg/mL (≈ 143 µM)
[17]; Klebsiella pneumoniae, ATCC700603, read-out: Intrinsic Activity, MIC
  MIC: 256 µg/mL

## carbonyl cyanide m-chlorophenyl hydrazine [CCCP, reference compound]
[10]
  Intrinsic Activity; MIC: 64 µg/mL
[11]
  Intrinsic Activity; MIC: 32 µg/mL
[12]
  Intrinsic Activity; MIC: 64 µg/mL
[15]; [19]
  Intrinsic Activity; MIC: 128 µg/mL
[16]; [19]
  Intrinsic Activity; MIC: 64 µg/mL
[17]; [19]
  Intrinsic Activity; MIC: 128 µg/mL
[18]
  effect on efflux of Nile red dye: inhibited the efflux of Nile red dye
